# Laboratory results reported in patent US20210244700A1, “COMPOSITIONS AND METHODS FOR PREVENTING AND/OR REDUCING ISCHEMIA AFTER SURGICAL INCISIONS” (Duke University, priority 2018, published 2021).
# Entries after “also recorded” stand apart in the source; their conditions may differ.
# Assays:
# [1] = cited from earlier work
# VEGF = experiment: Tissue VEGF concentration by enzyme-linked immunosorbent assay; type: in vivo, rat; details: skin flap 6 cm from the proximal flap, postoperative day 7; control 22.0±1.7 pg/ml; p=0.007
# Procedure: Tissue samples were harvested on postoperative day 7 and dissected on ice, submerged in liquid nitrogen, then stored at −80° C. Tissue samples from tissue sections taken at the same distance 6 cm from the proximal flap were then homogenized in lysis buffer containing 100 mM Tris hydrochloride (pH 7.4), 150 mmol sodium chloride, 1% Triton X-100, 0.5% sodium deoxycholate, and 1 μg/ml protease inhibitor cocktail (Sigma Aldrich, St. Louis, Mo.). The samples were centrifuged to pellet the debris, and the supernatants were analyzed following the manufacturer's protocol for a rat tissue extract VEGF enzyme-linked immunosorbent assay kit (Sigma-Aldrich).
# CD31+ vessels = experiment: Neovascularization: CD31 immunohistochemistry and hematoxylin and eosin histology of skin flap; type: in vivo, rat
# Procedure: (§1) Tissues from the proximal and distal parts of the flaps were collected on postoperative day 7 and were fixed in 10% paraformaldehyde and embedded in paraffin, with representative sections depicted in FIG. 1. For histologic evaluation and CD31 immunohistochemical staining, sections taken 6 cm from the proximal flap were deparaffinized in xylene and rehydrated in a series of ethanol washes. For detection of CD31+ cells, sections were incubated with anti-mouse CD31 antibody (BD Pharmingen, San Jose, Calif.) at a dilution of 1:200 at 4° C. overnight. For analysis of angiogenesis, the CD31+ vessels in five fields were counted by light microscopy (20×) for each group. A TdT In Situ Cell Death Detection Kit (R&D Systems, Minneapolis, Minn.) was used to compare apoptotic protein expression in sections taken 4 cm from the proximal flap. The ratio of terminal deoxynucleotidyl transferase-mediated dUDP end-labeling-positive cells was calculated according to the manufacturer's protocol. Terminal deoxynucleotidyl transferase-mediated dUDP end-labeling-positive cells were also counted by light microscopy (20×) in 10 fields.
# [2] = Complete blood counts after 14 total days of treatment; type: in vivo, rat
# Procedure: (§2) The animals were treated according to institutional animal care and use committee guidelines. Animals were double-housed for the preoperative period, then single-housed in the immediate postoperative period to protect flap integrity. Isoflurane anesthesia was used for all operations and daily intraperitoneal injections. Elizabethan collars were placed on rats to prevent ingestion of the topical solution after application. No dressing was used over the topical application site due to absorption. Animals were observed daily for side effects, including wound infections or dehiscence. Weights were taken on the day of surgery and on postoperative day 7. Blood samples were obtained on postoperative day 7 immediately before the animals were euthanized by means of cardiac puncture to determine hemoglobin, hematocrit, white blood cell count, and platelet count. Animals were euthanized by means of intracardiac potassium chloride on postoperative day 7, and gross necropsies were performed by a veterinarian to assess macroscopic organ changes after 14 total days of treatment.
# [3] = Side effect monitoring, weights and gross necropsy; type: in vivo, rat
# Procedure: as §2
# apoptotic cells = experiment: Apoptosis by terminal deoxynucleotidyl transferase-mediated dUDP end-labeling staining of skin flap; type: in vivo, rat; details: 20× magnification, 4 cm from the proximal flap; control 15.1±6.2; p=0.045
# Procedure: as §1
# ischemic skin flap [4] = experiment: Skin flap tissue perfusion, sodium fluorescein injection and IVIS imaging; type: in vivo, rat; details: postoperative day 7; for percentage of unperfused tissue: intraperitoneal + topical, control 39.9±3.8 percent; for percentage of unperfused tissue / percentage of overall flap perfusion: p<0.001; for percentage of overall flap perfusion: control 31.4±2.3 percent
# Procedure: (§3) After institutional animal care and use committee approval, hairless male rats (8 weeks old; 250 g) were obtained from Charles River Laboratories (Wilmington, Mass.). Six experimental groups of rats (n=24) and three control groups (n=12) underwent skin flap surgery by surgeons blinded to the experimental treatment arm. First, to assess both systemic and topical administration together, four experimental groups (n=16) were administered dimethyloxalylglycine (Cayman Chemical, Ann Arbor, Mich.) both intraperitoneally and topically for a total dose of 6 mg/kg/day (n=4), 12 mg/kg/day (n=4), 24 mg/kg/day (n=4), or 48 mg/kg/day (n=4). Next, to assess topical versus intraperitoneal administration, two experimental groups were administered dimethyloxalylglycine at 48 mg/kg/day either topically (n=4) or intraperitoneally (n=4). Intraperitoneal administration consisted of dimethyloxalylglycine suspension in phosphate-buffered saline (pH 7.4) to a maximum dosage of 10 ml/kg. Topical delivery consisted of administration of dimethyloxalylglycine using dimethylsulfoxide as a delivery vehicle at a maximum dosage of 9 ml/kg undiluted solution. Topical application was performed in the outline of the proposed skin flap. To replicate a short therapeutic course before and after flap surgery, the study was designed to include a 14-day treatment period, with dimethyloxalylglycine administered 7 days before and 7 days after flap surgery (FIG. 1). Because prolyl hydroxylase inhibitors target the HIF pathway […], this design was chosen to allow time for downstream neovascularization.
# (§4) Throughout the same 14-day treatment course, control groups were administered an equal volume of intraperitoneal phosphate-buffered saline (pH 7.4) and topical dimethylsulfoxide. A dorsal pedicle skin flap based on the McFarlane model measuring 3×6 cm was elevated in the areolar tissue plane deep to the panniculus carnosus layer on each rat on treatment day 7. Consistency in flap design was ensured using a model outline for size and shape and positioning according to bony landmarks. After flap elevation, the flap was sutured in place with 4-0 polypropylene. Surgeons were blinded intraoperatively to treatment arm with a random numbers scheme. Seven days after surgery, the animals were euthanized and histologic analysis performed in postmortem tissue specimens.
# (§5) Photographic measurements of necrosis were taken on postoperative days 1, 3, and 7. Flap necrosis was determined grossly by the presence of cyanosis and congestion on postoperative day 1 (FIG. 2) and the presence of scab formation and loss of skin elasticity on subsequent postsurgical days. At 7 days, tissue perfusion was assessed by means of intraperitoneal injection of 1 ml of sodium fluorescein 10% at 60 mg/kg and fluorescent imaging with an in vivo imaging system (IVIS Kinetic; PerkinElmer, Waltham, Mass.) using LIVING IMAGE® software with a 465-nm excitation and green fluorescent protein emission filter. Necrotic area was calculated using ImageJ Software (National Institutes of Health, Bethesda, Md.). Digital photographs and IVIS images were evaluated and analyzed by an investigator blinded to the assigned treatment group.
# HIF-1α = HIF-1α immunohistochemistry of skin flap epidermis; type: in vivo, rat; details: 4 cm from the proximal flap, postoperative day 7, control 3.5±0.6, p<0.001
# Procedure: For analysis of HIF-1α, sections were taken 4 cm from the proximal flap and incubated with anti-rabbit HIF-1α antibody (Novus Biologicals, Littleton, Colo.) at a dilution of 1:1600. A Discovery Ultra immunohistochemical system (Ventana Medical Systems, Oro Valley, Ariz.) was used for staining with OmniMap anti-Rb horseradish peroxidase and red chromogen was used for detection. HIF-1α-positive nuclei in the epidermis were counted by light microscopy (20×) in five fields. All immunohistochemical measurements were performed by a blinded investigator.
# ischemic skin flap [5] = experiment: Skin flap necrosis, rat ischemic dorsal pedicle skin flap (McFarlane) model; type: in vivo; details: for mean percentage of skin flap necrosis: postoperative day 3; for mean percentage of skin flap necrosis / flap necrosis: intraperitoneal + topical; for mean percentage of skin flap necrosis / postsurgical flap necrosis percentage: control 41.3±3.8 percent; for flap necrosis: postoperative day 7; for flap necrosis / percentage of flap necrosis: control 50.9±3.9 percent; for postsurgical flap necrosis percentage: postsurgical day 3; for percentage of flap necrosis: postsurgical day 7
# Procedure: as §3, §4, §5
structure (smiles),measurement,setting,value
O=c1c(-n2ccnn2)c[nH]n1-c1cc(N2CCOCC2)ncn1 [Molidastat],most common adverse effect in clinical trials,[1],hypertension resulting from polycythemia
O=C(O)CNC(=O)c1ncc(-c2cccc(Cl)c2)cc1O [Vadadustat],most common adverse effect in clinical trials,[1],hypertension resulting from polycythemia
COC(=O)CNC(=O)C(=O)OC [dimethyloxalylglycine],tissue VEGF concentration,VEGF,37.1 ± 3.4 pg/mL
same,number of CD31-labeled vessels,"CD31+ vessels; per high-power field at 20×, 6 cm from the proximal flap, after 14 total days of treatment, control 8.8±1.2, p=0.004",18.8±2.2
same,neovascularization on hematoxylin and eosin-stained tissue,"CD31+ vessels; skin flap after 14 total days of treatment, versus controls",greater neovascularization
same,mean hemoglobin,"[2]; control 15.1±0.5 g/dl, p=0.3",14.2 ± 1.0 g/dL
same,mean white blood cell count,"[2]; control 18.2±5.6×10^3/p1, p=0.08",10.4±1.6 ×10^3/p1
same,hematocrit,"[2]; control 43.3±1.1 percent, p=0.2",40.8±2.6%
same,platelet count,"[2]; control 1446±218×10^9/liter, p=0.8",1510±247 ×10^9/liter
same,gross necropsy findings,[3]; after 14 total days of treatment,"no evidence of cardiovascular changes, splenomegaly, or polycythemia; also recorded: no macroscopic organ changes were observed"
same,weights versus control animals,"[3]; experimental day 1 or day 14, all doses",no differences
same,"wound infections, dehiscence, behavioral changes in feeding or activity","[3]; rat, in vivo","No wound infections, dehiscence, or behavioral changes in feeding or activity were observed"
same,number of apoptotic cells per high-power field,apoptotic cells,1.7±0.6
same,dose dependence of tissue perfusion,ischemic skin flap [4]; 6 to 48 mg/kg/day,higher dimethyloxalylglycine doses leading to increased tissue perfusion
same,percentage of unperfused tissue,ischemic skin flap [4]; total 6 mg/kg/day,11.4±1.7%
same,percentage of unperfused tissue,ischemic skin flap [4]; total 12 mg/kg/day,9.4±4.2%
same,percentage of unperfused tissue,ischemic skin flap [4]; total 24 mg/kg/day,4.7±2.6%
same,percentage of unperfused tissue,ischemic skin flap [4]; total 48 mg/kg/day,1.4±0.9%
same,percentage of overall flap perfusion,ischemic skin flap [4]; intraperitoneal alone 48 mg/kg/day,7.2±3.8%
same,percentage of overall flap perfusion,ischemic skin flap [4]; topical alone 48 mg/kg/day,6.9±1.3%
same,number of HIF-1α-stained nuclei per high-power field,HIF-1α,21.0±2.7
same,cyanosis of flaps,"ischemic skin flap [5]; postoperative day 1, treated versus control flaps (FIG. 2: 24 mg/kg/day intraperitoneal and topical)",Decreased cyanosis
same,mean percentage of skin flap necrosis,"ischemic skin flap [5]; total 6 mg/kg/day, p=0.13",30.2±3.9%
same,mean percentage of skin flap necrosis,"ischemic skin flap [5]; total 12 mg/kg/day, p=0.001",12.3±4.5%
same,mean percentage of skin flap necrosis,"ischemic skin flap [5]; total 24 mg/kg/day, p=0.008",20.3±1.8%
same,mean percentage of skin flap necrosis,"ischemic skin flap [5]; total 48 mg/kg/day, p<0.001",7.7±3.1%
same,flap necrosis,"ischemic skin flap [5]; total 6 mg/kg/day, p=0.004",26.7±1.3%
same,flap necrosis,"ischemic skin flap [5]; total 12 mg/kg/day, p=0.002",20.6±7.0%
same,flap necrosis,"ischemic skin flap [5]; total 24 mg/kg/day, p=0.003",25.0±2.5%
same,flap necrosis,"ischemic skin flap [5]; total 48 mg/kg/day, p<0.001",11.6±4.4%
same,postsurgical flap necrosis percentage,"ischemic skin flap [5]; intraperitoneal alone 48 mg/kg/day, p=0.002",14.7±2.6%
same,postsurgical flap necrosis percentage,"ischemic skin flap [5]; topical alone 48 mg/kg/day, p=0.005",18.9±2.8%
same,percentage of flap necrosis,"ischemic skin flap [5]; intraperitoneal alone 48 mg/kg/day, p<0.001",16.3±5.2%
same,percentage of flap necrosis,"ischemic skin flap [5]; topical alone 48 mg/kg/day, p=0.003",25.7±2.3%
same,increase in flap viability,ischemic skin flap [5]; topical application and intraperitoneal administration,nearly threefold increase
